{
  "source": "patent US20130224730A1",
  "about": "“PEPTIDE LIGANDS” (ARIZONA BOARD OF REGENTS ACTING FOR AND ON BEHALF OF …, priority 2009, published 2013)",
  "key": {"G1.1 nVLP": {"tested_on": "G1.1 nVLP", "assay": "Peptide affinity column binding and elution of G1.1 nVLP produced in insect cells", "set-up": "species or system norovirus", "conditions": "eluted under same conditions as G2.4 nVLP", "description": "Noroviruses bind to histo-blood group antigens (HBGAs), which are carbohydrates that contain structurally related saccharide moieties, wherein type 1 and type 2 carbohydrate core structures constitute antigenically distinct variants. Several, but not all, noroviruses specifically bind to HBGAs, which are believed to function as receptors for docking and entry into the cell during infection. As previously mentioned, peptide nVLP1 was selected to specifically bind to G2.4 Minerva nVLPs. […] We therefore have identified at ligand that has cross reactivity to G1 and G2 capsid proteins in VLPs, with homology between genogroups I and II around 50%."}, "[1]": {"tested_on": "G2.4 Minerva nVLP (norovirus-like particles, VP1 capsid protein)", "assay": "Peptide affinity column capture and elution of nVLP from tobacco cell lysate", "conditions": "nVLP1 immobilized on a bead", "description": "Coupling to Support: All 6 candidate peptides were synthesized by solid-phase peptide synthesis using standard FMOC chemistry and subsequently cleaved off the resin. The candidate peptides were attached to an iodoacetyl functionalized affinity matrix at a specifically determined level. The benefits of coupling our peptides to the affinity matrix as opposed to direct synthesis onto the bead are that it allows for greater control of the levels of peptide that are immobilized. The suitability of a ligand for affinity chromatography depends on its ability to bind the target molecule specifically and reversibly with an adequate affinity. […]\nTo test the recovery yield of the column, cell lysate containing ˜500 μg of VP1 (as measured by SDS-PAGE) was loaded on the column and ˜470 μg of VP1 was recovered for a 94% yield. The dynamic binding capacity of the chromatography media was determined and is defined as the amount of target protein that the media binds under actual flow conditions before significant breakthrough of unbound protein occurs. […]\nBriefly, a large volume of VP1 containing lysate was prepared and its absorbance at 280 nm measured. This solution was continually loaded onto the column and the flow through measured for absorbance. The point at which breakthrough occurred, defined as 10% absorbance of the lysate, was used to calculate the binding capacity. […]"}},
  "data": [
    {"sequence": "LLYNKTFPHGRWSPSYPGSC (Peptide Ligand) [nVLP1, 20 mer peptide ligand for norovirus-like particles, optimal ligand]", "values": [
      {"measurement": "binding to G1.1 nVLP (cross reactivity G1/G2)", "setting": "G1.1 nVLP", "value": "shown to bind G1.1 nVLP"},
      {"measurement": "capture of nVLP from cell lysate", "setting": "[1]", "value": "able to capture nVLP from cell lysate"}
    ]}
  ]
}
